In series [1] the test system is A(H1N1)pdm09 influenza virus A/Jena/8178/09. Nature of the series: Inhibition of Jena/8178 replication (yield, spread) by NAI in A549 cells in presence of rNanA. The note with it: for spread and yield of the virus in the presence of NanA: oseltamivir at 1 μM; for Percentage of Virus Yield after NAI Treatment, with rNanA: 48 h after infection, rNanA 1:10,000, untreated control = 100%. The format is cell-based. The method, then: (§1) Confluent MDCK and A549 cells were mock-infected with test medium or infected with Jena/8178 (0.1 TCID50/cell) for 1 h (37°C; 5% CO2). After three washing steps with test medium, test medium or various rNanA or rNanB dilutions (1:100 to 1:1,000,000) were added. After 48 h at 37°C the supernatant was taken and stored at –20°C until plaque titer determination (virus yield analysis). The remaining cells were fixed with ice-cold methanol for 20 min and stored after washing with PBS in PBS at 4°C until immunocytochemical staining (virus spread analysis).
(§2) To determine the virus yield in collected supernatants, plaque assays were conducted on confluent MDCK cells grown in 12-well tissue culture plates (Greiner Bio-One GmbH). Briefly, after virus adsorption (37°C; 1 h), inoculum was replaced by 1 mL test medium containing also 0.4% agarose and 50 mM magnesium chloride (VEB Laborchemikalien, Apolda, Germany). After 48 h of incubation at 37°C, cells were fixed and stained with a solution of 0.4% crystal violet in a mixture of formalin (3% v/v) and ethanol (1.67% v/v) in water overnight. Plaques were counted over a light box after removal of the agar overlay.
(§3) Virus spread was analyzed by detecting viral nucleoprotein with a monoclonal antibody (Acris GmbH, Hiddenhausen, Germany) by immunocytochemical staining according to the manufacturers protocol (DAKO, Hamburg, Germany; [Bauer et al., 2007]).
(§4) The inhibitory effect of the NAI on Jena/8178 (inhibition of virus yield and spread) was determined in absence and presence of rNanA or rNanB in A549 cells.
(§5) ^a The plaque titer of untreated control (influenzavirus A/Jena/8178/09) reached in A549 cells (48 h after infection) in the absence and presence of rNanA or rNanB was set as 100% virus yield. It was used to calculate the percentage of virus yield after NAI treatment. Mean and standard deviations were calculated of at least three assays with two replicates.

Series [2] deals with T1, rNanB (Streptococcus pneumoniae serotype 4, UniProt Q54727).
T1 construct: encodes a C-terminal 6xHis-tagged NanB in size of 699 amino acid residues; 6xHis (C); made in house; host or cells: E. coli (vector pET-28a, plasmid pTNB20566)
T1 sequence (Q54727 30-697): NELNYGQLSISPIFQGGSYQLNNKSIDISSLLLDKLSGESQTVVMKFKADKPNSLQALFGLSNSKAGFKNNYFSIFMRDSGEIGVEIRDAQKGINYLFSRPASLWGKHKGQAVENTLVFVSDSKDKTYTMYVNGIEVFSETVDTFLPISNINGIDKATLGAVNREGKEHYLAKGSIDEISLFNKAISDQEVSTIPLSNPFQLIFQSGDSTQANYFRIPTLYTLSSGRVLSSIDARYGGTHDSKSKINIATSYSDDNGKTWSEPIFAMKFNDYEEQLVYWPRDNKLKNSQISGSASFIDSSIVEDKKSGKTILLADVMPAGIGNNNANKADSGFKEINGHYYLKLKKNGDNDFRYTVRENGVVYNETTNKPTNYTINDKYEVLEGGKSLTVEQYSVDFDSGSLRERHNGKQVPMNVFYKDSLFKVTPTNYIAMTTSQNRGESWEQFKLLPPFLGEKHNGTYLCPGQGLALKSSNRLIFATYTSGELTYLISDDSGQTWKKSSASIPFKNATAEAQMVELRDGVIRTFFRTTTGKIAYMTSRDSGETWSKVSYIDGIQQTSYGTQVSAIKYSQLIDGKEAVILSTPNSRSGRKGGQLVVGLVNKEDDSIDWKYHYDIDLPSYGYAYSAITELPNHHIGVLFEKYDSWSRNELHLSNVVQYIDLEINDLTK
Nature of the series: HA assay (hemagglutination of NA-treated human erythrocytes with peanut lectin), inhibition of rNanB. The format is biochemical, Streptococcus pneumoniae DSM20566. The note with it: 1 h incubation. The method, then:
(§6) The NAI susceptibility of rNanA and rNanB was evaluated with FL assay (rNanA and rNanB diluted 1:10,000 in FL buffer; pH 6.5) and HA assay as published recently ([Richter et al., 2015]) with slight modification of the HA assay. For stability reasons, rNanA and rNanB were diluted 1:5,000 in phosphate buffered saline (PBS) containing 100 μg/mL bovine serum albumin and stored at –20°C until use. The incubation period of the recombinant proteins with the human erythrocytes was only 1 h. At least three individual experiments were performed.

The subject of series [3] is A(H1N1)pdm09 influenza virus A/Jena/8178/09. Nature of the series: Inhibition of Jena/8178 replication (yield, spread) by NAI in A549 cells, without pneumococcal NA. It is filed as cell-based. To be noted: 48 h after infection, untreated control = 100%. How it is done: as §1, §2, §3, §4, §5
Series [4] has the same test system. Nature of the series: Inhibition of Jena/8178 replication (yield, spread) by NAI in A549 cells in presence of rNanB. The format is cell-based. The note with it: 48 h after infection, rNanB 1:10,000, untreated control = 100%. The method, then:
as §1, §2, §3, §4, §5

Series [5] deals with T2, rNanA (Streptococcus pneumoniae, UniProt P62575).
T2 construct: made in house; host or cells: E. coli
T2 sequence (P62575 54-1035): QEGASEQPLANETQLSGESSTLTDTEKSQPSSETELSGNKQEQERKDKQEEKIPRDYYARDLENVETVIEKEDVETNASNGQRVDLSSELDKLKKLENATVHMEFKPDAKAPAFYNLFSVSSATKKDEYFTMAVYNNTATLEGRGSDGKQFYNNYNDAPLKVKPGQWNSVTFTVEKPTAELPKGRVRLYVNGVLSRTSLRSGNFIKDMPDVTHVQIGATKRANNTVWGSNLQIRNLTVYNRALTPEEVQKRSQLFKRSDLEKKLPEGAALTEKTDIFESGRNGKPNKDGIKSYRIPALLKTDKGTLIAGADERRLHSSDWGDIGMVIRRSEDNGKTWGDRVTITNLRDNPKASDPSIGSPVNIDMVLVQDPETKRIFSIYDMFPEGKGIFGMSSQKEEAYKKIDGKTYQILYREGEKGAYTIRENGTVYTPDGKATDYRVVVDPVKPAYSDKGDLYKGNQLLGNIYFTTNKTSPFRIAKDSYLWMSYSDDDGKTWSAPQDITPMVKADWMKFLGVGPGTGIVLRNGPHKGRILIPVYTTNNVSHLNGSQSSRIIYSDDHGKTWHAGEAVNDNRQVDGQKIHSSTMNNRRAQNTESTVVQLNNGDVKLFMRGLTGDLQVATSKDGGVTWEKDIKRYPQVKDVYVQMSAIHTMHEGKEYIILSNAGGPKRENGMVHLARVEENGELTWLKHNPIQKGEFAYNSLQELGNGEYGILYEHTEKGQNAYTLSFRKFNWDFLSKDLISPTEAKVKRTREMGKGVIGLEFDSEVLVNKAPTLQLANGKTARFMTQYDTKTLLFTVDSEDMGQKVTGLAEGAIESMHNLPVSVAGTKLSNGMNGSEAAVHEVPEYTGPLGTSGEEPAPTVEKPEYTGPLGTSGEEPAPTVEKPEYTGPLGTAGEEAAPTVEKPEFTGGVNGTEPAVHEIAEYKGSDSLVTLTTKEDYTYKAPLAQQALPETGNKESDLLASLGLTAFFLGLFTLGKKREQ
Nature of the series: HA assay (hemagglutination of NA-treated human erythrocytes with peanut lectin), inhibition of rNanA. It is filed as biochemical, Streptococcus pneumoniae DSM20566. To be noted: 1 h incubation. The method, then: Neuraminidase activity of both NAs was further confirmed based on hemagglutination of NA-treated human erythrocytes in the presence of peanut lectin (HA assay) as described recently ([Richter et al., 2015]; [Walther et al., 2015]).
as §6

For series [6], the target named is Influenza Virus A/Jena/8178/09 Neuraminidase (Influenza A virus (A/Jena/8178/2009(H1N1)), UniProt A0A088CA11). Nature of the series: FL assay, inhibition of viral neuraminidase. It is filed as biochemical. The note with it: A/Jena/8178/09 NA; maximum tested concentration 100 μM; read-out: Inhibitory Concentration of NAIs, FL Assay (mean IC50).
The test system of series [7] is CC(=O)N[C@H]1[C@H]([C@H](O)[C@H](O)CO)O[C@@](Oc2ccc3c(C)cc(=O)oc3c2)(C(=O)O)C[C@@H]1O. Nature of the series: Fluorescence-based NA assay with eight MUNANA concentrations (3.13 to 400 uM) at pH 6.5, enzymes diluted 1:10,000, stopped after 5 min, 4-MU release fitted to the Michaelis-Menten equation by non-linear regression. It is filed as biochemical. How it is done: (§7) Activity of 10-fold dilutions (1:1,000 to 1:100,000) of rNanA and rNanB was determined with a fluorescence-based NA assay (FL assay) using the substrate 2-(4-methylumbelliferyl)-α-D-N-acetylneuraminic acid sodium salt hydrate (MUNANA, Sigma–Aldrich GmbH) as published ([Richter et al., 2015]). The activity of rNanB was additionally tested at pH 5. Relative FL units (RFU) were read using the microplate reader FLUOstar Omega (BMG Labtech GmbH, Ortenberg, Germany) and converted to 4-MU concentration (Sigma–Aldrich GmbH) according to the 4-MU standard curve (Supplementary Figure 1). Velocity (μM/min) and Km value (μM) for rNanA and rNanB were determined using eight MUNANA concentrations (3.13 to 400 μM) at pH 6.5. After 5 min the reaction was stopped, RFU were measured and converted to 4-MU concentrations according to the 4-MU standard curve. The Enzyme Kinetics Module of SigmaPlot 12.0 (Systat Software, San Jose, CA, USA) was applied to fit the data to the Michaelis–Menten equation using non-linear regression.
(§8) Both rNanA and rNanB were expressed in E. coli and their activity was confirmed by the FL assay at pH 5 (for rNanB only) and pH 6.5 (for both rNanA and rNanB). […] Activities of both recombinant S. pneumoniae NAs were further confirmed under more physiological conditions in a hemagglutination assay (HA assay; [Richter et al., 2015]). […]

In series [8] the test system is T3, rNanB.
T3 construct: recombinant, expressed in E. coli from pET-28a (pTNB20566); C-terminal 6xHis tag; 699 amino acid residues
Described as above. It is filed as biochemical. To be noted: n = 3. The method, then: as §7, §8

The target of series [9] is T1, rNanB. Nature of the series: FL assay (MUNANA), inhibition of rNanB. The format is biochemical, Streptococcus pneumoniae DSM20566. The note with it: for Inhibitory Concentration of NAIs against rNanB, FL assay: rNanB diluted 1:10,000, pH 6.5, MUNANA substrate. The method, then:
as §7, §6

The target of series [10] is T2, rNanA. Nature of the series: FL assay (MUNANA), inhibition of rNanA. The format is biochemical, Streptococcus pneumoniae DSM20566. The method, then:
as §7, §6

Counter-ions that a name gives are not always drawn.

As to `O=C(CCc1ccccc1)C[C@@H]1C[C@@H](c2ccccc2)c2c(cc(/C=C/c3ccccc3)oc2=O)O1` [Katsumadain A, katsumadain A], the “spread and yield of the virus in the presence of NanA” value (from here on “spread and yield of the virus”) in series [1] (48 h) is “inhibited”. Also, the “Percentage of Virus Yield after NAI Treatment, with rNanA” value (from here on “Percentage of Virus Yield … with rNanA”) in series [1] (NAI 10 µM) is given as 67.3 ± 6.2%; in series [1] (NAI 20 µM) it was 28.1 ± 13.7%. In addition, the “Inhibitory Concentration of NAIs against rNanB, HA assay” value on rNanB [2] turned out to be 5.4 ± 4.0 µM. Besides, the “Percentage of Virus Yield after NAI Treatment, without NA” value (“Percentage of Virus Yield … without NA” for short) in series [3] (NAI 10 µM) was 54.9 ± 25.7%; in series [3] (NAI 20 µM) it was 29.0 ± 15.1%. In addition, in series [4] (NAI 20 µM), the “Percentage of Virus Yield after NAI Treatment, with rNanB” value (“Percentage of Virus Yield … with rNanB” for short) was 21.0 ± 4.1%. On rNanA [5], the “Inhibitory Concentration of NAIs against rNanA, HA assay” value was 3.2 ± 0.0 µM.

Turning to `CC(=O)N[C@H]1[C@H]([C@H](O)[C@H](O)CO)OC(C(=O)O)=C[C@@H]1O` [DANA, N-acetyl-2,3-dehydro-2-deoxyneuraminic acid], in [1] (48 h), the “spread and yield of the virus” value is “inhibited”. Further, the results for the “Percentage of Virus Yield … with rNanA” value in series [1] (NAI 10 µM) and in [1] (NAI 50 µM) were 81.1 ± 27.9% and 13.5 ± 8.3%, respectively. The entries for the “Percentage of Virus Yield … without NA” value in [3] (NAI 10 µM) and in series [3] (NAI 50 µM) were 78.9 ± 36.1% and 34.8 ± 17.4%, respectively. Further, the “Percentage of Virus Yield … with rNanB” value in series [4] (NAI 50 µM) stood at 27.4 ± 1.0%. For the same molecule, in series [6], the IC50 amounted to 3.6 ± 0.4 µM. Besides, the “Inhibitory Concentration of NAIs against rNanA, HA assay” value on rNanA [5] came to 100.0 ± 0.0 µM.

On to rNanA (Streptococcus pneumoniae R6), for which the Km in [7] came to 39.70 µM.

As for `CC(=O)N[C@H]1[C@H]([C@H](O)[C@H](O)CO)O[C@@](Oc2ccc3c(C)cc(=O)oc3c2)(C(=O)O)C[C@@H]1O` [MUNANA, 2-(4-methylumbelliferyl)-α-D-N-acetylneuraminic acid sodium salt hydrate], in the series with rNanB [8], the Km turned out to be 684 µM.

Turning to `CC(=O)N[C@H]1[C@H]([C@H](O)[C@H](O)CO)OC(C(=O)O)=C[C@@H]1N=C(N)N` [Zanamivir, zanamivir], the “antiviral effect in the presence of rNanA” value in series [1] (48 h, spread and yield) is “abolished”. The results for the “Percentage of Virus Yield … with rNanA” value in series [1] (NAI 0.1 µM) and in [1] (NAI 1 µM) were 109.0 ± 35.5% and 86.5 ± 46.2%, respectively. The “Inhibitory Concentration of NAIs against rNanB, HA assay” value on rNanB [2] is reported as “Not active”. For the same molecule, the “Percentage of Virus Yield … without NA” value in series [3] (NAI 0.1 µM) is 4.4 ± 1.5%; in series [3] (NAI 1 µM), 1.4 ± 1.0%. The “Percentage of Virus Yield … with rNanB” value stood at 6.2 ± 2.9% in series [4] (NAI 0.1 µM) and 0.7 ± 0.3% in [4] (NAI 1 µM). Besides, the IC50 on rNanB [9] and on rNanA [10] was more than 100 µM in each case. Also, at rNanB [9], the “Inhibitory Concentration of NAIs against rNanB, FL assay” value is reported as “Not active”. Further, the “Inhibitory Concentration of NAIs against rNanA, FL assay” value at rNanA [10] (rNanA diluted 1:10,000, pH 6.5, MUNANA substrate) is “Not active”. The “Inhibitory Concentration of NAIs against rNanA, HA assay” value at rNanA [5] was “Not active”.

Regarding `COc1cc2oc(-c3ccc(O)cc3O)c(CC=C(C)C)c(=O)c2c(O)c1/C=C/C(C)C` [Artocarpin], the “spread and yield of the virus” value in series [1] (48 h) is reported as “inhibited”. The “Percentage of Virus Yield … with rNanA” value in series [1] (NAI 10 µM) stood at 67.3 ± 25.5%; in [1] (NAI 20 µM), 44.3 ± 11.0%. Moreover, on rNanB [2], the “Inhibitory Concentration of NAIs against rNanB, HA assay” value turned out to be 10.0 ± 0.0 µM. Also, the “Percentage of Virus Yield … without NA” value in series [3] (NAI 10 µM) was found to be 70.2 ± 10.5%; in series [3] (NAI 20 µM) it was 84.8 ± 15.7%. Moreover, in series [4] (NAI 20 µM), the “Percentage of Virus Yield … with rNanB” value amounted to 77.1 ± 37.8%. For the same molecule, at rNanB [9], the “Inhibitory Concentration of NAIs against rNanB, FL assay” value is given as “Not active”. This molecule yielded an IC50 on rNanA [10] of 10 ± 6.3 µM. Moreover, the “Inhibitory Concentration of NAIs against rNanA, HA assay” value at rNanA [5] is 10.0 ± 0.0 µM.

For orientation: Km means the substrate concentration at which the rate is half of its maximum.

For the origin of these results see publication PMC4800182 (Frontiers in Microbiology, 2016).
